ChEMBL document CHEMBL1201862, “PubChem BioAssay data set” (2004)
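Five concentrations, 48 hours, 96-well plates. Abbreviation: GI50, concentration required for 50% inhibition of growth.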 Activity calls are given as the source filed them. Cut-off read from the data, not from the text of the source: active = GI50 up to about 1.1 µM and inactive = higher.

Experiments:
Assay in all cases: NCI anticancer screen, dose series, 48 h
KM12 = tested on: KM12
M14 = tested on: M14
OVCAR-3 = tested on: OVCAR-3
SF-295 = tested on: SF-295
UACC-62 = tested on: UACC-62
MOLT-4 = tested on: MOLT-4
786-0 = tested on: 786-0
U-251 = tested on: U-251
OVCAR-8 = tested on: OVCAR-8
SK-MEL-5 = tested on: SK-MEL-5
SNB-75 = tested on: SNB-75
EKVX = tested on: EKVX
SF-539 = tested on: SF-539
SK-MEL-28 = tested on: SK-MEL-28
RXF 393 = tested on: RXF 393

Measured: GI50

C[C@]12CC/C(=N\OC(=O)Nc3ccccc3)C=C1CC[C@@H]1C2CC[C@@]2(C)C1CC[C@@H]2OC(=O)Nc1ccccc1 (stereo not given in full)
inactive: KM12 41.9 µM | M14 35.9 µM | OVCAR-3 > 100 µM | SF-295 47.9 µM | UACC-62 59 µM | MOLT-4 > 100 µM | 786-0 > 100 µM | U-251 > 100 µM | OVCAR-8 > 100 µM | SK-MEL-5 23.1 µM | SNB-75 31.5 µM | EKVX > 100 µM | SF-539 > 100 µM

COc1cc(Nc2nc3cc(C)ccc3nc2-c2ccccc2)cc(OC)c1OC
inactive: KM12 34.4 µM | M14 29.3 µM | OVCAR-3 18.5 µM | SF-295 20.9 µM | UACC-62 21.5 µM | MOLT-4 18.3 µM | 786-0 14.7 µM | U-251 35 µM | OVCAR-8 36.5 µM | SK-MEL-5 19.2 µM | SNB-75 22.7 µM | SK-MEL-28 16.6 µM | EKVX 20.7 µM

O/N=C1/C(=C/c2ccccc2)CCCC1C(NO)c1ccccc1 (stereo not given)
inactive: KM12 85.3 µM | M14 84.9 µM | OVCAR-3 > 100 µM | SF-295 78.3 µM | UACC-62 70.3 µM | MOLT-4 26.4 µM | 786-0 > 100 µM | U-251 > 10 µM | RXF 393 34.8 µM | OVCAR-8 64 µM | SNB-75 > 100 µM | SK-MEL-28 > 100 µM | EKVX 61.9 µM | SF-539 > 100 µM

O=C1c2ccccc2C(=O)c2c1ccc1c3ccccc3n(Cc3ccccc3)c21
inactive: KM12 > 100 µM | M14 > 100 µM | OVCAR-3 > 100 µM | SF-295 > 100 µM | UACC-62 > 100 µM | MOLT-4 > 100 µM | 786-0 > 100 µM | OVCAR-8 > 100 µM | SK-MEL-5 > 100 µM | SNB-75 2.35 µM | EKVX > 100 µM | SF-539 > 100 µM

O=C(c1cc(=O)c2ccc(O)cc2o1)c1ccc(Cl)cc1Cl
inactive: KM12 5.9 µM | M14 5.12 µM | OVCAR-3 15.5 µM | SF-295 20.6 µM | UACC-62 5.93 µM | MOLT-4 2.81 µM | 786-0 28.2 µM | U-251 20.6 µM | RXF 393 29 µM | OVCAR-8 22.8 µM | SK-MEL-5 20.4 µM | SNB-75 > 82.2 µM | SK-MEL-28 > 59.3 µM | EKVX 50.2 µM

COc1ccc(C)cc1-c1cc(Sc2ccccc2)c(-c2cc(C)ccc2OC)o1
inactive: KM12 > 31.6 µM | M14 > 31.6 µM | OVCAR-3 > 31.6 µM | SF-295 > 100 µM | UACC-62 > 31.6 µM | MOLT-4 > 31.6 µM | 786-0 > 31.6 µM | U-251 > 31.6 µM | OVCAR-8 > 31.6 µM | SK-MEL-5 > 31.6 µM | SNB-75 > 31.6 µM | SK-MEL-28 > 31.6 µM | EKVX > 31.6 µM | SF-539 > 31.6 µM

CN(C)c1n/c(=N/c2cccc(Cl)c2)ss1
inactive: KM12 17.5 µM | M14 14.6 µM | SF-295 24.1 µM | UACC-62 10.8 µM | MOLT-4 3.03 µM | 786-0 12.9 µM | U-251 11.8 µM | RXF 393 16.7 µM | OVCAR-8 12.9 µM | SK-MEL-5 27.5 µM | SNB-75 31 µM | SK-MEL-28 12.1 µM | EKVX 23.7 µM | SF-539 18.7 µM

COc1ccc(/C=C(\NC(=O)c2ccccc2)c2nc3ccccc3[nH]2)cc1
inactive: KM12 39.6 µM | M14 33.4 µM | OVCAR-3 34.5 µM | UACC-62 24 µM | MOLT-4 24.5 µM | 786-0 44 µM | U-251 30.3 µM | OVCAR-8 39.3 µM | SK-MEL-5 14.8 µM | SNB-75 29.4 µM | SK-MEL-28 14.6 µM | EKVX 35.9 µM | SF-539 39.1 µM

N#C/C(=C\c1cccc(O)c1O)C(N)=O
inactive: KM12 36.3 µM | M14 67.1 µM | OVCAR-3 40.9 µM | SF-295 58.1 µM | UACC-62 35.2 µM | MOLT-4 35.9 µM | 786-0 33.3 µM | U-251 61.4 µM | RXF 393 3.22 µM | OVCAR-8 60.8 µM | SNB-75 9.57 µM | SK-MEL-28 30.8 µM | EKVX 34.8 µM | SF-539 34 µM

COc1cc2c(cc1OC)-c1c(cnn1C1OC(COC(C)=O)C(OC(C)=O)C(OC(C)=O)C1OC(C)=O)CC2 (stereo not given)
inactive: KM12 > 100 µM | M14 > 100 µM | OVCAR-3 > 88.1 µM | SF-295 > 100 µM | UACC-62 > 100 µM | MOLT-4 > 81.5 µM | 786-0 > 100 µM | U-251 34.1 µM | OVCAR-8 > 100 µM | SK-MEL-5 > 83.4 µM | SNB-75 48.9 µM | SK-MEL-28 > 100 µM | EKVX > 100 µM | SF-539 > 100 µM
